Results reported in ChEMBL document CHEMBL1155628, “A new cembranolide from the soft coral Sinularia capillosa” (2000).
Values after ≈ are worked out from the molar mass of the structure shown.

Key:
[1] = system: P388; experiment: Cytotoxicity against mouse P388 cells; assay type: functional; conditions: read-out: ED50 (the source's name)
[2] = system: L1210; experiment: Cytotoxicity against mouse L1210 cells; assay type: functional; conditions: read-out: ED50 (the source's name)

SMILES	EC50 [1] [µg/mL]	EC50 [2] [µg/mL]
C=C1C(=O)O[C@]2(C)CC[C@@H]1C[C@@H]1O[C@@]1(C)CC[C@H](OC(C)=O)[C@@]1(C)CC[C@@H]2O1	2.5 (≈ 6.37 µM)	5 (≈ 12.7 µM)
C=C1C(=O)O[C@]2(C)CC[C@@H]1C[C@@H](O)[C@@](C)(O)CC/C=C(\C)CC[C@@H]2O [CAPILLOLIDE]	15 (≈ 42.6 µM)	18.5 (≈ 52.5 µM)
C=C1C(=O)O[C@@H]2C[C@H]1CC[C@]1(C)O[C@H]1CC/C(C)=C/CC[C@@]2(C)O [FLEXIBILIDE]	1.5 (≈ 4.48 µM)	3 (≈ 8.97 µM)
C=C1C(=O)O[C@]2(C)CC[C@@H]1C[C@@H]1O[C@@]1(C)CC/C=C(\C)CC[C@@H]2O [SINULARIOLIDE]	8.5 (≈ 25.4 µM)	10 (≈ 29.9 µM)
